Assay results taken from patent publication US20150329558A1, “FUSED HETEROCYCLIC COMPOUNDS AS ION CHANNEL MODULATORS” (Gilead Sciences, Inc., priority 2011, published 2015).
Like-named read-outs stand apart in the source and are kept apart here.

Key:
[1] = target: wild-type human cardiac sodium channel, hNav1.5 (late INa) (Homo sapiens, UniProt Q14524); test: Late INa screening assay (QPatch whole cell patch clamp); type: cell-based
Method in brief: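 Compounds tested at 1 μM final in extracellular solution against tefluthrin (10 μM)-enhanced late current. Automated patch clamp (23-25° C) on HEK293 expressing alpha subunit alone: −120 mV holding, 250 ms depolarization to −20 mV every 10 s. Read-out is percent inhibition of mean current over 225–250 ms.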

[2] = Microsomal stability assay, dog; type: in vitro ADME; settings: metabolic stability, dog liver microsomes 0.5 mg/mL, substrate 3 uM
Method in brief: (§1)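 Liver microsomes at 0.5 mg/mL protein in 100 mM KPO4 buffer, incubated with 3 uM compound and NADPH-regenerating system, run in duplicate. Samples taken at 2, 12, 25, 45 and 65 min and quenched in MeOH/ACN/water before analysis.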

[3] = Microsomal stability assay, rat; type: in vitro ADME; settings: metabolic stability, rat liver microsomes 0.5 mg/mL, substrate 3 uM
Method in brief: as §1

[4] = target: wild-type human cardiac sodium channel, hNav1.5 (peak INa) (Homo sapiens, UniProt Q14524); test: Peak INa screening assay (tonic and use-dependent block); type: cell-based
Method: The late sodium current (Late INa) and peak sodium current (Peak INa) assays are performed on an automated electrophysiology platform, QPatch 16× (Sophion Bioscience, Copenhagen, Denmark), which uses the whole cell patch clamp technique to measure currents through the cell membrane of up to 16 cells at a time. The assay uses an HEK293 (human embryonic kidney) cell line heterologously expressing the wild-type human cardiac sodium channel, hNav1.5, purchased from Millipore (Billerica, Mass.). No beta subunits were coexpressed with the Na channel alpha subunit. Cells are maintained with standard tissue culture procedures and stable channel expression is maintained with 400 μg/mL Geneticin in the culture medium. […] Experiments are carried out at 23-25° C. For both the Late INa and Peak INa assays, series resistance compensation is set to 100% and series resistance and whole-cell compensation are performed automatically. Currents are digitized at 25 kHz and low-pass filtered at 12 kHz and 10 kHz for the late and peak INa assays, respectively. Currents through open sodium channels are automatically recorded and stored in the Sophion Bioscience Oracle database (Sophion Bioscience, Copehagen, Denmark). Analysis is performed using QPatch Assay and database software and data are compiled in Excel. Compound stocks are routinely made by the Gilead Sample Bank in plastic vials to 10 mM in dimethyl sulfoxide (DMSO). In some cases, when compounds are not soluble in DMSO, they are made in 100% ethanol. Stocks are sonicated as necessary. […] The intracellular solution used to perfuse the inside of the cells for both the Late INa and Peak INa assays contains: 120 mM CsF, 20 mM CsCl, 5 mM EGTA, 5 mM HEPES and pH adjusted to 7.4 with CsOH. Compounds are diluted in extracellular solution to 1 μM in glass vials and then transferred to glass well plates before robotic addition to the cells. […] Compounds were also evaluated for their effect in several other assays, including their effect on Peak INa. Good separation between the concentrations of test compound to reduce late and peak INa is beneficial to enable separation of the desired effect to reduce late INa-induced electrical and mechanical dysfunction from the undesired effect to reduce peak INa, which can lead to slowing or block of conduction of electrical excitation in the heart. It is contemplated that the compounds of Formula I avoid significant block of peak INa. Since the peak INa in the cells used herein can be very large, introducing artifacts in the recording, the concentration of Na^+ in the bath can be reduced to 20 mM and a nonpermeant cation added to compensate for the Na^+ that was removed to maintain the osmolarity and ionic strength of the solution (see solution details below). Analysis of peak INa generally requires correction for rundown before determining the % block of peak current by the tested compound. […] A low stimulation frequency of 0.1 Hz was used to determine the effect of the test compound when the channel spent most of the time in the resting (closed) state and provides information about Tonic Block (TB). A higher stimulation frequency (3 Hz) was used to measure block of the channel when it spent more time in the activated and inactivated states and provided a measure of Use-Dependent Block (UDB). Use-dependent block refers to the accumulation of block with increased frequency of channel activation. Block of cardiac peak INa by compounds of this invention is increased with an increase in the frequency of stimulation from 0.1 to 1-5 Hz (frequencies encountered either in the normal heart or during tachycardia). It is therefore expected that reduction of peak INa by compounds of this invention will be greater at high heart rates, such as those during tachyarrhythmias, than at normal heart rates. […]

[5] = Microsomal stability assay, human; type: in vitro ADME; settings: metabolic stability, human liver microsomes 0.5 mg/mL, substrate 3 uM
Method in brief: as §1

[6] = percent block of late INa, compound at 1 μM, 10 μM Tefluthrin, HEK293 hNav1.5, read-out: Late INa 1 μM
[7] = tonic block of peak INa, 0.1 Hz, 1 μM, read-out: Peak TB 1 μM
[8] = use-dependent block of peak INa, 3 Hz, 1 μM, read-out: Peak UDB 1 μM

Chain of wild-type human cardiac sodium channel, hNav1.5 (peak INa) (Q14524 whole entry): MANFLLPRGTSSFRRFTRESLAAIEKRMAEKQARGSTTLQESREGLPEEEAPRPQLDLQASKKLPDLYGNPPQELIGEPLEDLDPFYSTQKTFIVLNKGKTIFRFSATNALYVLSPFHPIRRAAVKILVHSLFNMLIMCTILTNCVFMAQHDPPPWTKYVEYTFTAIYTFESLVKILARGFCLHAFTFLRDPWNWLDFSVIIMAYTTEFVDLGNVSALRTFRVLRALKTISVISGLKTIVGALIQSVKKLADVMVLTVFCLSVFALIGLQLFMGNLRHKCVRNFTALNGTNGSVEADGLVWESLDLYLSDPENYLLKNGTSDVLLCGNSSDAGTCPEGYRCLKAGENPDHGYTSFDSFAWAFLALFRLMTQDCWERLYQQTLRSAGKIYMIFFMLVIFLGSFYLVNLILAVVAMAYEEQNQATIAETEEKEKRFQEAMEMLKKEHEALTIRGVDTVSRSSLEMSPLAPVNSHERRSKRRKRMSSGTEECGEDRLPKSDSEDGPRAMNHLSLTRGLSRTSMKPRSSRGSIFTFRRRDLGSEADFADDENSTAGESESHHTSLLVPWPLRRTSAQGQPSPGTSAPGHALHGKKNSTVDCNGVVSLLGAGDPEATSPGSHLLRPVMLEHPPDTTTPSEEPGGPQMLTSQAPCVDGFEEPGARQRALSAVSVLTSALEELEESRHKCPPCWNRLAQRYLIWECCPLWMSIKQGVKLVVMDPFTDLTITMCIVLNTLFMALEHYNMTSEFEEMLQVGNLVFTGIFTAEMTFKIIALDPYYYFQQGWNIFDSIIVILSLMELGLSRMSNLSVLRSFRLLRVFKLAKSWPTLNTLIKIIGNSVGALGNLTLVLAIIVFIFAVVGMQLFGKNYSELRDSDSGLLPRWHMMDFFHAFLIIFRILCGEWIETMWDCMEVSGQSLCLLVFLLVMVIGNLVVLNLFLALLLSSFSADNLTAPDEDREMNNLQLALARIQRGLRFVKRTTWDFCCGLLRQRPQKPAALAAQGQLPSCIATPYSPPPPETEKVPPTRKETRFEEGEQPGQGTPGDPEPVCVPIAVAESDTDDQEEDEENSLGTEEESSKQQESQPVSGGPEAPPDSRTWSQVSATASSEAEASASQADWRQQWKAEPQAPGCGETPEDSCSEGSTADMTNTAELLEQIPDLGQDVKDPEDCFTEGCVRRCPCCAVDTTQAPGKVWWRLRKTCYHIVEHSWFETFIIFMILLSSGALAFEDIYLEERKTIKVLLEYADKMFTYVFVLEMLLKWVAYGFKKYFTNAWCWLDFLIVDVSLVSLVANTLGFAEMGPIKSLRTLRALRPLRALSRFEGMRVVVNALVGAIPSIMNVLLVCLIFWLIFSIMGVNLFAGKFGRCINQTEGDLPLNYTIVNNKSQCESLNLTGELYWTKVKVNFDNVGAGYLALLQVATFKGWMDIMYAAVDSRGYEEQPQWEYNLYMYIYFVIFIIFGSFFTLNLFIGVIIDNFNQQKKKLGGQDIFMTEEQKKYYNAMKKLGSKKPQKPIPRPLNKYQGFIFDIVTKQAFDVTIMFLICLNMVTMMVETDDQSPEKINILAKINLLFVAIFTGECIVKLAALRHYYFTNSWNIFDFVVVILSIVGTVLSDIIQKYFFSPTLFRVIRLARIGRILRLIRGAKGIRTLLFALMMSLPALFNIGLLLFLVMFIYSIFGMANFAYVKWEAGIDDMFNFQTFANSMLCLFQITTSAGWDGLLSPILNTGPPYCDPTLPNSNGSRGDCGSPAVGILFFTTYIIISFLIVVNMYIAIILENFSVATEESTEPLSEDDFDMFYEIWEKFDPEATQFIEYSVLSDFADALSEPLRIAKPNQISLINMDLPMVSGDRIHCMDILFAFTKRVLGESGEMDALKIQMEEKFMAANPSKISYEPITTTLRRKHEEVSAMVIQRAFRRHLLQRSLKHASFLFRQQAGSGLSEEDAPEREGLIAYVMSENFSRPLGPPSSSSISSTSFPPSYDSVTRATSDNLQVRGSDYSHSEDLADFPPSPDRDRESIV
Chain of wild-type human cardiac sodium channel, hNav1.5 (late INa) (Q14524 whole entry): as above

| MS Dog THalf [2] [min] | MS Rat THalf [3] [min] | MS Human THalf [5] [min] | Compound | inhibition at 1 µM [1, 6] [%] | inhibition at 1 µM [4, 7] [%] | inhibition at 1 µM [4, 8] [%] | inhibition at 1 µM ([1]; % inhibition at 1 μM, read-out: NAv1.5*-LATE-) [%] | inhibition at 1 µM ([4]; % inhibition at 1 μM, tonic block, read-out: NAv1.5*-PEAK-TB-) [%] | inhibition at 1 µM ([4]; % inhibition at 1 μM, use-dependent block 3 Hz, read-out: NAv1.5*-PEAK-UDB-3 HZ-) [%] | inhibition at 1 µM ([4]; read-out: Peak TB 1 μM) [%] | inhibition at 1 µM ([4]; read-out: Peak UDB 1 μM) [%] |
| --- | --- | --- | --- | --- | --- | --- | --- | --- | --- | --- | --- |
| 5 | 29 | 16 | Cc1noc(Cn2nnc3ccc(-c4ccc(C5CC5)cc4)cc3c2=O)n1 [II-73, 6-(4-cyclopropylphenyl)-3-((3-methyl-1,2,4-oxadiazol-5-yl)methyl)benzo[d][1,2,3]triazin-4(3H)-one] | 45 | 6 | 1 | – | – | – | – | – |
| 120 | 46 | 38 | O=C1c2cc(-c3ccc(C(F)(F)F)cc3)ccc2SCN1Cc1ncccc1F [Compound X-6, 3-((3-fluoropyridin-2-yl)methyl)-6-(4-(trifluoromethyl)phenyl)-2H-benzo[e][1,3]thiazin-4(3H)-one] | 69 | 35 | 32 | – | – | – | – | – |
| 97 | 170 | 320 | O=C(c1ncccc1F)N1CCc2ccc(-c3ccc(C(F)(F)F)cc3)cc2C1 [IX-25, (3-fluoropyridin-2-yl)(7-(4-(trifluoromethyl)phenyl)-3,4-dihydroisoquinolin-2(1H)-yl)methanone] | 57 | 28 | 33 | 57 | 28 | 32 | – | – |
| 2 | 2 | 2 | Cc1nccn1CC1(Cn2nnc3ccc(-c4ccc(OC(F)(F)F)cc4)cc3c2=O)CC1 [II-34, 3-((1-((2-methyl-1H-imidazol-1-yl)methyl)cyclopropyl)methyl)-6-(4-(trifluoromethoxy)phenyl)benzo[d][1,2,3]triazin-4(3H)-one] | 48 | 27 | 34 | – | – | – | – | – |
| 61 | 135 | 270 | O=c1c2cc(-c3ccc(OC(F)(F)F)cc3)ccc2nnn1Cc1ncc(Cl)cn1 [II-4, 3((5-chloropyrimidin-2-yl)methyl)-6-(4-(trifluoromethoxy)phenyl)benzo[d][1,2,3]triazin-4(3H)-one] | 41 | 9 | 4 | – | – | – | – | – |
| 24 | 71 | 339 | O=c1c2cc(-c3ccc(OC(F)(F)F)cc3)ccc2nnn1Cc1cc(-c2ccccn2)on1 [II-47, 3-((5-(pyridin-2-yl)isoxazol-3-yl)methyl)-6-(4-(trifluoromethoxy)phenyl)benzo[d][1,2,3]triazin-4(3H)-one] | 44 | 6 | 4 | – | – | – | – | – |
| 67 | 80 | 382 | Cc1cc(Cn2nnc3ccc(-c4ccc(OC(F)(F)F)cc4)cc3c2=O)no1 [II-26, 3-((5-methylisoxazol-3-yl)methyl)-6-(4-(trifluoromethoxy)phenyl)benzo[d][1,2,3]triazin-4(3H)-one] | 47 | 14 | 5 | – | – | – | – | – |
| 76 | 35 | 52 | O=c1c2cc(-c3ccc(OC(F)(F)F)cc3)ccc2nnn1Cc1coc(C2CC2)n1 [II-100, 3((2-cyclopropyloxazol-4-yl)methyl)-6-(4-(trifluoromethoxy)phenyl)benzo[d][1,2,3]triazin-4(3H)-one] | 50 | 15 | 2 | – | – | – | – | – |

| Compound | MS Dog THalf [2] [min] | MS Rat THalf [3] [min] | MS Human THalf [5] [min] | inhibition at 1 µM [1, 6] [%] | inhibition at 1 µM [4, 7] [%] | inhibition at 1 µM [4, 8] [%] | inhibition at 1 µM ([1]; % inhibition at 1 μM, read-out: NAv1.5*-LATE-) [%] | inhibition at 1 µM ([4]; % inhibition at 1 μM, tonic block, read-out: NAv1.5*-PEAK-TB-) [%] | inhibition at 1 µM ([4]; % inhibition at 1 μM, use-dependent block 3 Hz, read-out: NAv1.5*-PEAK-UDB-3 HZ-) [%] | inhibition at 1 µM ([4]; read-out: Peak TB 1 μM) [%] | inhibition at 1 µM ([4]; read-out: Peak UDB 1 μM) [%] |
| --- | --- | --- | --- | --- | --- | --- | --- | --- | --- | --- | --- |
| O=c1c2cc(-c3ccc(OC(F)(F)F)cc3)ccc2nnn1CC1(COc2ncccn2)CC1 [II-80, 3-((1-((pyrimidin-2-yloxy)methyl)cyclopropyl)methyl)-6-(4-(trifluoromethoxy)phenyl)benzo[d][1,2,3]triazin-4(3H)-one] | 85 | 34 | 49 | 42 | – | – | – | – | – | 8 | 7 |
